Assay results reported in patent publication US5292733A, “Cephalosporin compounds” (Lucky Limited, priority 1991, dated 1994).
≈ marks a conversion by molar mass, not a printed value.

Legend:
Experiment in all cases: Antibacterial activity MIC, two-fold agar dilution
Format in all cases: cell-based
[1] = test system: Escherichia coli ATCC 10536; conditions: ATCC10536, Muller-Hinton agar, 37° C., 20 hours
Protocol: (§1) These MIC values were taken by employing a two-fold dilution method: that is, two-fold serial dilutions of each of the test compounds were made and dispersed in a Muller-Hinton agar medium; 2 μl of the standard test strain which had the 10^7 CFU(Colony Forming Unit) per ml was inoculated on the medium; and these were incubated at 37° C. for 20 hours. The results of the MIC tests are shown Table 1.

[2] = test system: Micrococcus luteus ATCC 9341; conditions: ATCC9341; Micrococcus luteus ATCC 9341; Muller-Hinton agar, 37° C., 20 hours; read-out: Antibacterial Activity MIC
Protocol: as §1

[3] = test system: Bacillus megaterium ATCC 9885; conditions: Priestia megaterium, ATCC9885; Bacillus megaterium ATCC 9885; Muller-Hinton agar, 37° C., 20 hours; read-out: Antibacterial Activity MIC
Protocol: as §1

[4] = test system: Staphylococcus aureus ATCC 6538p; conditions: ATCC6538P; Staphylococcus aureus ATCC 6538p; Muller-Hinton agar, 37° C., 20 hours; read-out: Antibacterial Activity MIC
Protocol: as §1

[5] = test system: Escherichia coli ATCC 25922; conditions: ATCC25922, Muller-Hinton agar, 37° C., 20 hours
Protocol: as §1

[6] = test system: Morganella morganii ATCC 8076h; conditions: ATCC8076H, Muller-Hinton agar, 37° C., 20 hours
Protocol: as §1

[7] = test system: Klebsiella pneumoniae ATCC 10031; conditions: ATCC10031; Klebsiella pneumoniae ATCC 10031; Muller-Hinton agar, 37° C., 20 hours; read-out: Antibacterial Activity MIC
Protocol: as §1

[8] = test system: Bacillus cereus ATCC 11778; conditions: ATCC11778; Bacillus cereus ATCC 11778; Muller-Hinton agar, 37° C., 20 hours; read-out: Antibacterial Activity MIC
Protocol: as §1

[9] = test system: Proteus vulgaris ATCC 6059; conditions: ATCC6059; Proteus vulgaris ATCC 6059; Muller-Hinton agar, 37° C., 20 hours; read-out: Antibacterial Activity MIC
Protocol: as §1

[10] = test system: Enterobacter aerogenes ATCC 29751; conditions: Klebsiella aerogenes, ATCC29751; Enterobacter aerogenes ATCC 29751; Muller-Hinton agar, 37° C., 20 hours; read-out: Antibacterial Activity MIC
Protocol: as §1

[11] = test system: Proteus mirabilis ATCC 25933; conditions: ATCC25933; Proteus mirabilis ATCC 25933; Muller-Hinton agar, 37° C., 20 hours; read-out: Antibacterial Activity MIC
Protocol: as §1

[12] = test system: Shigella flexneri ATCC 11836; conditions: ATCC11836, Muller-Hinton agar, 37° C., 20 hours
Protocol: as §1

[13] = test system: Staphylococcus epidermidis ATCC 12228; conditions: ATCC12228; Staphylococcus epidermidis ATCC 12228; Muller-Hinton agar, 37° C., 20 hours; read-out: Antibacterial Activity MIC
Protocol: as §1

[14] = test system: Pseudomonas aeruginosa ATCC 10145; conditions: ATCC10145; Pseudomonas aeruginosa ATCC 10145; Muller-Hinton agar, 37° C., 20 hours; read-out: Antibacterial Activity MIC
Protocol: as §1

[15] = test system: Shigella sonnei ATCC 11060; conditions: ATCC11060, Muller-Hinton agar, 37° C., 20 hours
Protocol: as §1

[16] = test system: Serratia marcescens ATCC 27117; conditions: ATCC27117; Serratia marcescens ATCC 27117; Muller-Hinton agar, 37° C., 20 hours; read-out: Antibacterial Activity MIC
Protocol: as §1

[17] = test system: Pseudomonas aeruginosa ATCC 25619; conditions: ATCC25619; Pseudomonas aeruginosa ATCC 25619; Muller-Hinton agar, 37° C., 20 hours; read-out: Antibacterial Activity MIC
Protocol: as §1

[18] = test system: Citrobacter freundii ATCC 8090; conditions: ATCC8090; Citrobacter freundii ATCC 8090; Muller-Hinton agar, 37° C., 20 hours; read-out: Antibacterial Activity MIC
Protocol: as §1

[19] = test system: Acinetobacter calcoaceticus ATCC 15473; conditions: ATCC15473; Acinetobacter calcoaceticus ATCC 15473; Muller-Hinton agar, 37° C., 20 hours; read-out: Antibacterial Activity MIC
Protocol: as §1

[20] = test system: Streptococcus faecalis ATCC 29212; conditions: Enterococcus faecalis, ATCC29212; Streptococcus faecalis ATCC 29212; Muller-Hinton agar, 37° C., 20 hours; read-out: Antibacterial Activity MIC
Protocol: as §1

[21] = test system: Salmonella typhimurium ATCC 14028; conditions: Salmonella enterica; Salmonella typhimurium ATCC 14028; Muller-Hinton agar, 37° C., 20 hours; read-out: Antibacterial Activity MIC
Protocol: as §1

[22] = test system: Providencia rettgeri ATCC 9250; conditions: ATCC9250, Muller-Hinton agar, 37° C., 20 hours
Protocol: as §1

[23] = test system: Enterobacter cloacae ATCC 27508; conditions: ATCC27508; Enterobacter cloacae ATCC 27508; Muller-Hinton agar, 37° C., 20 hours; read-out: Antibacterial Activity MIC
Protocol: as §1

[24] = test system: Staphylococcus aureus ATCC 10537; conditions: ATCC10537; Staphylococcus aureus ATCC 10537; Muller-Hinton agar, 37° C., 20 hours; read-out: Antibacterial Activity MIC
Protocol: as §1

[25] = test system: Pseudomonas aeruginosa ATCC 27853; conditions: ATCC27853; Pseudomonas aeruginosa ATCC 27853; Muller-Hinton agar, 37° C., 20 hours; read-out: Antibacterial Activity MIC
Protocol: as §1

How did the MIC [1] turn out when `CC[n+]1c(SCC2=C(C(=O)[O-])N3C(=O)[C@@H](NC(=O)/C(=N\OC(C)C(=O)O)c4csc(N)n4)[C@H]3SC2)cc(N)nc1N` (stereo partly drawn) [Compound I-4, (6R,7R)-7-[(Z)-2-(2-aminothiazol-4-yl)-2-(R,S-carboxyeth-1-oxyimino)acetamido]-3-(2,6-diamino-3-ethylpyrimidinium-4-yl)thiomethyl-3-cephem-4-carboxylate] was run?
Its MIC is 0.13 µg/mL (≈ 0.208 µM).

And the MIC [2]?
Its MIC is 0.5 µg/mL (≈ 0.802 µM).

And the MIC [3]?
The MIC was 0.25 µg/mL (≈ 0.401 µM).

What about the MIC [4] of the same molecule?
The MIC was 8 µg/mL (≈ 12.8 µM).

And the MIC [5]?
Its MIC is 0.13 µg/mL (≈ 0.208 µM).

What about the MIC [6] of the same molecule?
The MIC was no more than 0.008 µg/mL.

And the MIC [7]?
The MIC was 0.031 µg/mL (≈ 0.0497 µM).

And the MIC [8]?
Its MIC is 64 µg/mL (≈ 103 µM).

And the MIC [9]?
The MIC was 0.063 µg/mL (≈ 0.101 µM).

What about the MIC [10] of the same molecule?
The MIC was 1 µg/mL (≈ 1.6 µM).

And the MIC [11]?
Its MIC is 0.31 µg/mL (≈ 0.497 µM).

What about the MIC [12] of the same molecule?
Its MIC is 0.031 µg/mL (≈ 0.0497 µM).

And the MIC [13]?
The MIC was 1 µg/mL (≈ 1.6 µM).

And the MIC [14]?
The MIC was 2 µg/mL (≈ 3.21 µM).

And the MIC [15]?
The MIC was 0.25 µg/mL (≈ 0.401 µM).

What about the MIC [16] of the same molecule?
Its MIC is 0.13 µg/mL (≈ 0.208 µM).

What about the MIC [17] of the same molecule?
Its MIC is 1 µg/mL (≈ 1.6 µM).

What about the MIC [18] of the same molecule?
The MIC was 0.13 µg/mL (≈ 0.208 µM).

And the MIC [19]?
Its MIC is 4 µg/mL (≈ 6.41 µM).

What about the MIC [20] of the same molecule?
Its MIC is greater than 128 µg/mL.

What about the MIC [21] of the same molecule?
The MIC was 0.5 µg/mL (≈ 0.802 µM).

And the MIC [22]?
The MIC was no more than 0.008 µg/mL.

And the MIC [23]?
The MIC was 0.016 µg/mL (≈ 0.0257 µM).

And the MIC [24]?
The MIC was 4 µg/mL (≈ 6.41 µM).

And the MIC [25]?
The MIC was 2 µg/mL (≈ 3.21 µM).

`CCO/N=C(\C(=O)N[C@@H]1C(=O)N2C(C(=O)[O-])=C(CSc3cc(N)nc(N)[n+]3C)CS[C@H]12)c1nsc(N)n1` [Compound I-5, (6R,7R)-7-[(Z)-2-(5-amino-1,2,4-thiadiazol-3-yl)-2-(ethoxyimino)acetamido]-3-(2,6-diamino-3-methylpyrimidinium-4-yl)thiomethyl-3-cephem-4-carboxylate] was tested. Which MIC [1] did it give?
The MIC was 0.13 µg/mL (≈ 0.229 µM).

What about the MIC [2] of the same molecule?
Its MIC is 0.031 µg/mL (≈ 0.0547 µM).

What about the MIC [3] of the same molecule?
The MIC was 0.13 µg/mL (≈ 0.229 µM).

What about the MIC [4] of the same molecule?
Its MIC is 2 µg/mL (≈ 3.53 µM).

What about the MIC [5] of the same molecule?
The MIC was 0.13 µg/mL (≈ 0.229 µM).

What about the MIC [6] of the same molecule?
The MIC was no more than 0.008 µg/mL.

What about the MIC [7] of the same molecule?
The MIC was 0.016 µg/mL (≈ 0.0282 µM).

And the MIC [8]?
Its MIC is 64 µg/mL (≈ 113 µM).

And the MIC [9]?
The MIC was 0.031 µg/mL (≈ 0.0547 µM).

What about the MIC [10] of the same molecule?
Its MIC is 0.5 µg/mL (≈ 0.882 µM).

And the MIC [11]?
Its MIC is 0.061 µg/mL (≈ 0.108 µM).

What about the MIC [12] of the same molecule?
Its MIC is 0.063 µg/mL (≈ 0.111 µM).

What about the MIC [13] of the same molecule?
Its MIC is 0.5 µg/mL (≈ 0.882 µM).

What about the MIC [14] of the same molecule?
Its MIC is 32 µg/mL (≈ 56.5 µM).

And the MIC [15]?
Its MIC is 0.25 µg/mL (≈ 0.441 µM).

What about the MIC [16] of the same molecule?
Its MIC is 0.5 µg/mL (≈ 0.882 µM).

And the MIC [17]?
The MIC was 2 µg/mL (≈ 3.53 µM).

What about the MIC [18] of the same molecule?
Its MIC is 0.25 µg/mL (≈ 0.441 µM).

And the MIC [19]?
The MIC was 8 µg/mL (≈ 14.1 µM).

And the MIC [20]?
The MIC was greater than 128 µg/mL.

And the MIC [21]?
Its MIC is 0.5 µg/mL (≈ 0.882 µM).

What about the MIC [22] of the same molecule?
Its MIC is no more than 0.008 µg/mL.

And the MIC [23]?
Its MIC is 0.016 µg/mL (≈ 0.0282 µM).

What about the MIC [24] of the same molecule?
Its MIC is 1 µg/mL (≈ 1.76 µM).

And the MIC [25]?
Its MIC is 16 µg/mL (≈ 28.2 µM).

How did the MIC [1] turn out when `CCO/N=C(\C(=O)N[C@@H]1C(=O)N2C(C(=O)[O-])=C(CSc3cc(N)nc(N)[n+]3CC)CS[C@H]12)c1nsc(N)n1` [Compound I-6, (6R,7R)-7-[(Z)-2-(5-amino-1,2,4-thiadiazol-3-yl)-2-(ethoxyimino)acetamido]-3-(2,6-diamino-3-ethylpyrimidinium-4-yl)thiomethyl-3-cephem-4-carboxylate] was run?
Its MIC is 0.13 µg/mL (≈ 0.224 µM).

And the MIC [2]?
The MIC was 0.063 µg/mL (≈ 0.108 µM).

What about the MIC [3] of the same molecule?
Its MIC is 0.13 µg/mL (≈ 0.224 µM).

What about the MIC [4] of the same molecule?
The MIC was 1 µg/mL (≈ 1.72 µM).

And the MIC [5]?
The MIC was 0.13 µg/mL (≈ 0.224 µM).

And the MIC [6]?
The MIC was no more than 0.008 µg/mL.

And the MIC [7]?
Its MIC is 0.031 µg/mL (≈ 0.0534 µM).

What about the MIC [8] of the same molecule?
The MIC was 64 µg/mL (≈ 110 µM).

What about the MIC [9] of the same molecule?
The MIC was 0.031 µg/mL (≈ 0.0534 µM).

And the MIC [10]?
The MIC was 0.5 µg/mL (≈ 0.861 µM).

And the MIC [11]?
Its MIC is 0.016 µg/mL (≈ 0.0276 µM).

What about the MIC [12] of the same molecule?
The MIC was 0.063 µg/mL (≈ 0.108 µM).

What about the MIC [13] of the same molecule?
The MIC was 0.5 µg/mL (≈ 0.861 µM).

What about the MIC [14] of the same molecule?
Its MIC is 16 µg/mL (≈ 27.6 µM).

What about the MIC [15] of the same molecule?
The MIC was 0.25 µg/mL (≈ 0.431 µM).

And the MIC [16]?
Its MIC is 0.25 µg/mL (≈ 0.431 µM).

What about the MIC [17] of the same molecule?
The MIC was 2 µg/mL (≈ 3.44 µM).

What about the MIC [18] of the same molecule?
Its MIC is 0.13 µg/mL (≈ 0.224 µM).

What about the MIC [19] of the same molecule?
Its MIC is 8 µg/mL (≈ 13.8 µM).

And the MIC [20]?
The MIC was greater than 128 µg/mL.

And the MIC [21]?
The MIC was 0.5 µg/mL (≈ 0.861 µM).

What about the MIC [22] of the same molecule?
Its MIC is no more than 0.008 µg/mL.

And the MIC [23]?
Its MIC is 0.063 µg/mL (≈ 0.108 µM).

And the MIC [24]?
The MIC was 1 µg/mL (≈ 1.72 µM).

And the MIC [25]?
The MIC was 16 µg/mL (≈ 27.6 µM).
